Results as given in ChEMBL document CHEMBL3991601, “The target landscape of clinical kinase drugs” (Science, 2017).
Structures can show the parent of a compound that is named as a salt. The source made the active and inactive calls. For most assays here, no stated cut-off is given here; in the data, actives have a measured Kd and inactives only a lower limit.

Tests used:
[1] = target: Citron Rho-interacting kinase (Homo sapiens, UniProt O14578)
[2] = target: Chromodomain-helicase-DNA-binding protein 4 (Homo sapiens, UniProt Q14839)
[3] = target: Tyrosine-protein kinase Lck (Homo sapiens, UniProt P06239)
Ephrin type-A receptor 2 = Ephrin type-A receptor 2 (Homo sapiens, UniProt P29317)
[4] = target: T1, Phosphatidylinositol 5-phosphate 4-kinase type-2 gamma (Homo sapiens, UniProt Q8TBX8)
T1 sequence (Q8TBX8 whole entry): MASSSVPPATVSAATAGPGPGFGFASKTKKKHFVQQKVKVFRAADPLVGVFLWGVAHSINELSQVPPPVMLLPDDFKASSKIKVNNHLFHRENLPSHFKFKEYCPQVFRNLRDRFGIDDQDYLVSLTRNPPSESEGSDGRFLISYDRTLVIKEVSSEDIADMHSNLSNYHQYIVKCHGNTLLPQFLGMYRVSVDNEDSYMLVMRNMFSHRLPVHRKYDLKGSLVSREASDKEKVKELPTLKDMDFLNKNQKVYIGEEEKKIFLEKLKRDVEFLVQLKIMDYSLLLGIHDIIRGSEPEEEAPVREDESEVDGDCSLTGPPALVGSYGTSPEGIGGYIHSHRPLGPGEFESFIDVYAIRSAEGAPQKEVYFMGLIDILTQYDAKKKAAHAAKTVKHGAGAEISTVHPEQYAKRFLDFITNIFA

[5] = target: Epithelial discoidin domain-containing receptor 1 (Homo sapiens, UniProt Q08345)
Ephrin type-A receptor 1 = target: T2, Ephrin type-A receptor 1 (Homo sapiens, UniProt P21709)
T2 sequence (P21709 whole entry): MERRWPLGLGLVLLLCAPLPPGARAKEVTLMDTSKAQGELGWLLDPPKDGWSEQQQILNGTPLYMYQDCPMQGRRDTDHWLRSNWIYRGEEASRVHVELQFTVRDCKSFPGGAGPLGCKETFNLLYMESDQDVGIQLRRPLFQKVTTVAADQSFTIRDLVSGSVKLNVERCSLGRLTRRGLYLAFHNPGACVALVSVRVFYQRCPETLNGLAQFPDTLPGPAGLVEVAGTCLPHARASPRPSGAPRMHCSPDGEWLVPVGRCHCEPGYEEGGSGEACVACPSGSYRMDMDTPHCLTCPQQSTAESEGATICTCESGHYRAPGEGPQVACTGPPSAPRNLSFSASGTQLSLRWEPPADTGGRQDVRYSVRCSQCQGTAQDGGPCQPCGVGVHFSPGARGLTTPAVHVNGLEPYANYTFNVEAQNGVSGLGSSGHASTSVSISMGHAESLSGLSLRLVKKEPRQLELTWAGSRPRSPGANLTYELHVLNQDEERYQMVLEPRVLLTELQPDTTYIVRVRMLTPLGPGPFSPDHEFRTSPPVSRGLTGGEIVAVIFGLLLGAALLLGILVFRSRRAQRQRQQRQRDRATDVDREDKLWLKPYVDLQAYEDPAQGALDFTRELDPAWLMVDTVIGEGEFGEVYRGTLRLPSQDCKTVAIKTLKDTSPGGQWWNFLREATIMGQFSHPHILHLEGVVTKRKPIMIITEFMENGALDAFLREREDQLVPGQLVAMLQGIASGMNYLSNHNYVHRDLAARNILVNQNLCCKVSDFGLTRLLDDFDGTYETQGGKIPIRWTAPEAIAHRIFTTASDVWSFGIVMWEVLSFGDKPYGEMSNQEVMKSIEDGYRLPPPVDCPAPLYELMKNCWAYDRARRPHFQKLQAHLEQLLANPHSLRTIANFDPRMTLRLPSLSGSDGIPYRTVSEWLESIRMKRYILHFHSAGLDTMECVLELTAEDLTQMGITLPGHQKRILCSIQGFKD

[6] = target: T3, Serine/threonine-protein kinase Nek3 (Homo sapiens, UniProt P51956)
T3 sequence (P51956 whole entry): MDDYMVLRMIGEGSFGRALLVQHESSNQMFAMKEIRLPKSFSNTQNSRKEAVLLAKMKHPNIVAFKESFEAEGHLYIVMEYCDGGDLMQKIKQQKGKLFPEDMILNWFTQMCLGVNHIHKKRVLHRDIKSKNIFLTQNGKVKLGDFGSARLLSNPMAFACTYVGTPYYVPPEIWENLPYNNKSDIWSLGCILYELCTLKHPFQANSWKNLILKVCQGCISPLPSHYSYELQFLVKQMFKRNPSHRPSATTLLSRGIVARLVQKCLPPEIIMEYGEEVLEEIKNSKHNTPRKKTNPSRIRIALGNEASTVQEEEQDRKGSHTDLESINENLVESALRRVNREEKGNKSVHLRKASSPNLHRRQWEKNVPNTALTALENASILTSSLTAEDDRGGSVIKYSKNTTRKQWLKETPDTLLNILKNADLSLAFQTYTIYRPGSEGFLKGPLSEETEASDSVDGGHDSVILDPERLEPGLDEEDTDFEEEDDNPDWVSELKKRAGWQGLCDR

[7] = target: RAC-gamma serine/threonine-protein kinase (Homo sapiens, UniProt Q9Y243)
[8] = target: Myosin light chain kinase, smooth muscle (Homo sapiens, UniProt Q15746)
[9] = target: Mitogen-activated protein kinase kinase kinase 20 (Homo sapiens, UniProt Q9NYL2)
[10] = target: T4, Ribosyldihydronicotinamide dehydrogenase [quinone] (Homo sapiens, UniProt P16083)
T4 sequence (P16083 whole entry): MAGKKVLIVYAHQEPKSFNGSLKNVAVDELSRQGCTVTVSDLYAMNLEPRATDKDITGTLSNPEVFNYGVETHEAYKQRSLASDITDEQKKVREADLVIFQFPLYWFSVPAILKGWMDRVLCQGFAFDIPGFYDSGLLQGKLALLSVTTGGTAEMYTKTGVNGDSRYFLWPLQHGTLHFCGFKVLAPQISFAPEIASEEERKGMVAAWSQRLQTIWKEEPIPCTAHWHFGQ

Sequence of Myosin light chain kinase, smooth muscle (Q15746 whole entry): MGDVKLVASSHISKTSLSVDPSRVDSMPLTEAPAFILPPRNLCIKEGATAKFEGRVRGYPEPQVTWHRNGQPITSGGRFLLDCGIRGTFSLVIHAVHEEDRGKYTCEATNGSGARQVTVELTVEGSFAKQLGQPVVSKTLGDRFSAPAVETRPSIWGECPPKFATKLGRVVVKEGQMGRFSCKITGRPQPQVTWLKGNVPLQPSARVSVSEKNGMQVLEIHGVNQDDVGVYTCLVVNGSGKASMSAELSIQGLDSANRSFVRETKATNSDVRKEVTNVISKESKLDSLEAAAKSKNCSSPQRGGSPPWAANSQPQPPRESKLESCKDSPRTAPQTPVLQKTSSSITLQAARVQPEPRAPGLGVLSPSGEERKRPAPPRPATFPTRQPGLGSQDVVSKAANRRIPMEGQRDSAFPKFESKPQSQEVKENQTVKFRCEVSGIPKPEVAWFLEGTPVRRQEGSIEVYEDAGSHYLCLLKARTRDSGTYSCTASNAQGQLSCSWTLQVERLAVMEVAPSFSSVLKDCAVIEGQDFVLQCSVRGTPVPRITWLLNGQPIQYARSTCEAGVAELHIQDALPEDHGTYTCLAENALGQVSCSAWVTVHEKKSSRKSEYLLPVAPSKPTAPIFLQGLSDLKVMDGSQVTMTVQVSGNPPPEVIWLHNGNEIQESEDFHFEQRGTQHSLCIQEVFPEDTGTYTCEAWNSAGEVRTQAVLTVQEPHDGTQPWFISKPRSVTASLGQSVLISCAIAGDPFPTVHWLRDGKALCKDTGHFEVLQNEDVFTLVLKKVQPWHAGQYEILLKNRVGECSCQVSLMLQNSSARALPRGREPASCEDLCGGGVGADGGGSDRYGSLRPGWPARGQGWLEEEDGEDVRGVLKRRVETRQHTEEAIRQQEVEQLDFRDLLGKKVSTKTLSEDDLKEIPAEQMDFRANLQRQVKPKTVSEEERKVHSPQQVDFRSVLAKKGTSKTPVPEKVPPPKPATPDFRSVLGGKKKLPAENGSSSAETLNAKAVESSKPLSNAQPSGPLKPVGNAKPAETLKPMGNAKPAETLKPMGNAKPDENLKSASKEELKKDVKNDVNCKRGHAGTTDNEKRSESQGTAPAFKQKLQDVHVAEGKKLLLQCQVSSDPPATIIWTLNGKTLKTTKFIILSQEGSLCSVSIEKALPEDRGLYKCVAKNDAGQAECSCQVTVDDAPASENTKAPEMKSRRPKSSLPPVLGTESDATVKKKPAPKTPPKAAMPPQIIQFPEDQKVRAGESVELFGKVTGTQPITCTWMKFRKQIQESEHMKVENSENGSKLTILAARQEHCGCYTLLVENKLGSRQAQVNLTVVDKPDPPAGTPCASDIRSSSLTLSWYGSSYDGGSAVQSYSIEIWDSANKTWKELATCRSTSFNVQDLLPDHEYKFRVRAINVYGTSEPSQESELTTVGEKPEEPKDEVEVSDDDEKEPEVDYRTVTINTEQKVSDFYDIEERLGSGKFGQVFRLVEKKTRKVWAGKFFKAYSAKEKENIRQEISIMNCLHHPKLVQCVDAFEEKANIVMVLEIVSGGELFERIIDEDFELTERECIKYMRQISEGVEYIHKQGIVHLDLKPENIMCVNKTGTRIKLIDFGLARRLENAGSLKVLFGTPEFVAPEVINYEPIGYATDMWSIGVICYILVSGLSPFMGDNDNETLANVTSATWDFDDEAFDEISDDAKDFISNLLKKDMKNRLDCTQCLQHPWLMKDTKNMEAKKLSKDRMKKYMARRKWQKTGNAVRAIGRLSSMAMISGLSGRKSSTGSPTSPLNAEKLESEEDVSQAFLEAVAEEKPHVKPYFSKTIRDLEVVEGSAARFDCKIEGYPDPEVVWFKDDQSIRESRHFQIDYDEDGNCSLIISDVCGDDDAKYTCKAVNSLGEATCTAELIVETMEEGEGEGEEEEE
Sequence of Chromodomain-helicase-DNA-binding protein 4 (Q14839 whole entry): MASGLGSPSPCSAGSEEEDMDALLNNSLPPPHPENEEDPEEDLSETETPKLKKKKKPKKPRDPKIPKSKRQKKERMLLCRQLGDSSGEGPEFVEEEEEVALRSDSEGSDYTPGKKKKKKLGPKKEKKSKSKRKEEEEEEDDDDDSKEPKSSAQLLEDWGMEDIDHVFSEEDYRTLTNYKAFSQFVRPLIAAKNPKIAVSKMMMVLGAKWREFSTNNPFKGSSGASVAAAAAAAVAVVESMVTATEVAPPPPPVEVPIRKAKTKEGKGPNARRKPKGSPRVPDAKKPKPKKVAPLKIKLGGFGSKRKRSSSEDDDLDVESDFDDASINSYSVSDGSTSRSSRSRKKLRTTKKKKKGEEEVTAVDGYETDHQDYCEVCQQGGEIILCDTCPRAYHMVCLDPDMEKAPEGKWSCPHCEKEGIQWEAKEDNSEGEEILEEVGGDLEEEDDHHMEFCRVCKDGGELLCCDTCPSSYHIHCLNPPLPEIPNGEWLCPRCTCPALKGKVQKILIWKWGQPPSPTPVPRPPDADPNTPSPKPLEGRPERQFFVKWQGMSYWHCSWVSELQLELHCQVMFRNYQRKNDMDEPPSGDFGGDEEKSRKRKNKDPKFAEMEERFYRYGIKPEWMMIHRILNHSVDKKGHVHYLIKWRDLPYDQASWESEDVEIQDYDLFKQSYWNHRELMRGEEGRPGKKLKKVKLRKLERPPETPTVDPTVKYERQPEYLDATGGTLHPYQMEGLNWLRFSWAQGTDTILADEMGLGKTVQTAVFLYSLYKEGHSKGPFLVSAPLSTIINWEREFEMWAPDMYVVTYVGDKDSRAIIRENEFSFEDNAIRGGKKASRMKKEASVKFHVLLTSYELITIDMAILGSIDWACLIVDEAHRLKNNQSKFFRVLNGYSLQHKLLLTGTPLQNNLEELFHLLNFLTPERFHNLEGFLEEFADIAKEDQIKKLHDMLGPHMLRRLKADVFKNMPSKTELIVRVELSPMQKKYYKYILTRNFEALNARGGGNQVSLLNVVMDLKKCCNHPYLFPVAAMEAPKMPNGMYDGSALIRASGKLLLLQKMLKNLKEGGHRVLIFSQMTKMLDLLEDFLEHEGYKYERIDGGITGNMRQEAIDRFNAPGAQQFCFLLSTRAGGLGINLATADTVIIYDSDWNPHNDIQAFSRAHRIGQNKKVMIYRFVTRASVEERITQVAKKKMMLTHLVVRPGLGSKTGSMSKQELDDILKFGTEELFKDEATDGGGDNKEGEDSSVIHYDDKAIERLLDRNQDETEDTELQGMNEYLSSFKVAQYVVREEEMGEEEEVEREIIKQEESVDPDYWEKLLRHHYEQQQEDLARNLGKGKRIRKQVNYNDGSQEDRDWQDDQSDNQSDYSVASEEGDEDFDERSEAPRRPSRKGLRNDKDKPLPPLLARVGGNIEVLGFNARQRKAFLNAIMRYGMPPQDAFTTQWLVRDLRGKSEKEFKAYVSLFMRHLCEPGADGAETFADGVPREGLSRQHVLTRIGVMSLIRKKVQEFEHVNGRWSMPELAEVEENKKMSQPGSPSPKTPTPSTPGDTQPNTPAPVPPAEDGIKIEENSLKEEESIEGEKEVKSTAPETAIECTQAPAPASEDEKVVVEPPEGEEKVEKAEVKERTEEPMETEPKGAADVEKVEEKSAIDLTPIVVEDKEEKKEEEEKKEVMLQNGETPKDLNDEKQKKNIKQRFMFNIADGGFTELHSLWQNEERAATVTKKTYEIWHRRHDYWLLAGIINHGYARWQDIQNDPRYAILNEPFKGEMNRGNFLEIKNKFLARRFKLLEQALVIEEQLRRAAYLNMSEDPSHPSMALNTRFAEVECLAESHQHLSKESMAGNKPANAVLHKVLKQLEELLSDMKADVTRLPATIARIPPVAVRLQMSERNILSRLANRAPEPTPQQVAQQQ
Sequence of Ephrin type-A receptor 2 (P29317 whole entry): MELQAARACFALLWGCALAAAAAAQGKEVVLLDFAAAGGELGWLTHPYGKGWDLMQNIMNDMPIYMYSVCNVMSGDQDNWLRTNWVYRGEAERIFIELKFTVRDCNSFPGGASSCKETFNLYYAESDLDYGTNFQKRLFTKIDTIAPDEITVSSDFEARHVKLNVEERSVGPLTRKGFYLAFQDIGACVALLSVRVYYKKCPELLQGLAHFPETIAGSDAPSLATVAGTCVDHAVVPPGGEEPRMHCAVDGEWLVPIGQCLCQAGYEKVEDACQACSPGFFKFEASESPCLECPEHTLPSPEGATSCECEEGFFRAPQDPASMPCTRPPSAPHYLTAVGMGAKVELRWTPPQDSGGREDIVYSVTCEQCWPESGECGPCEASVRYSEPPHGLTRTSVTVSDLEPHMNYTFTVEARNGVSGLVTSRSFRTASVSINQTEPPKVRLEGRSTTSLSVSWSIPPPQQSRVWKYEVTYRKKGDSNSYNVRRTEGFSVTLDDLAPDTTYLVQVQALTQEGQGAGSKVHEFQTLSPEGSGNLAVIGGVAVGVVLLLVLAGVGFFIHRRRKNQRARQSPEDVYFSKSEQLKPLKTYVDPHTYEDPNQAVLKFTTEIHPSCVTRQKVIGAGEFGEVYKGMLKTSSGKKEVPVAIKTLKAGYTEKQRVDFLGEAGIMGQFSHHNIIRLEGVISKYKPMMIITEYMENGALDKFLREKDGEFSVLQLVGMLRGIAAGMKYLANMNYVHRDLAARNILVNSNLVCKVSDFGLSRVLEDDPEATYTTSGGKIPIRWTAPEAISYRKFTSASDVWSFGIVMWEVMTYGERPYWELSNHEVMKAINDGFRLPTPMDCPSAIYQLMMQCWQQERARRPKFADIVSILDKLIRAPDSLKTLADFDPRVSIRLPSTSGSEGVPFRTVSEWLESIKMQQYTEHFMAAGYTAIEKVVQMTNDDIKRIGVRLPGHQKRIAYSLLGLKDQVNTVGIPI

Kd [1] | Kd [2] | Kd [3] | Kd (Ephrin type-A receptor 2) | Kd [4] | Kd [5] | Kd (Ephrin type-A receptor 1) | Kd [6] | Kd [7] | Kd [8] | Kd [9] | Kd [10] | SMILES
> 30 µM (inactive) | > 30 µM (inactive) | > 30 µM (inactive) | > 30 µM (inactive) | > 30 µM (inactive) | > 30 µM (inactive) | > 30 µM (inactive) | > 30 µM (inactive) | > 30 µM (inactive) | > 30 µM (inactive) | > 30 µM (inactive) | > 30 µM (inactive) | COc1ccc(S(=O)(=O)N(C(C)=O)c2ccccc2/C=C/c2cc[n+]([O-])cc2)cc1 [HMN-214]
> 30 µM (inactive) | > 30 µM (inactive) | > 30 µM (inactive) | > 30 µM (inactive) | 1.03 µM (active) | > 30 µM (inactive) | > 30 µM (inactive) | > 30 µM (inactive) | > 30 µM (inactive) | > 30 µM (inactive) | > 30 µM (inactive) | 52.6 µM (active) | CN(C[C@@H]1COCCO1)S(=O)(=O)Nc1ccc2ccc3ncc(-c4cnn(C)c4)cc3c(=O)c2c1 [MK-2461]
> 30 µM (inactive) | > 30 µM (inactive) | > 30 µM (inactive) | > 30 µM (inactive) | > 30 µM (inactive) | > 30 µM (inactive) | > 30 µM (inactive) | > 30 µM (inactive) | > 30 µM (inactive) | > 30 µM (inactive) | > 30 µM (inactive) | > 30 µM (inactive) | Cn1cc(-c2cnc3ccc4ccc(CS(=O)(=O)NCc5ccccn5)cc4c(=O)c3c2)cn1 [MK-8033]
> 30 µM (inactive) | > 30 µM (inactive) | > 30 µM (inactive) | > 30 µM (inactive) | > 30 µM (inactive) | > 30 µM (inactive) | > 30 µM (inactive) | > 30 µM (inactive) | > 30 µM (inactive) | > 30 µM (inactive) | > 30 µM (inactive) | > 30 µM (inactive) | Cc1nc(Nc2n[nH]c3c2CN(C(=O)N[C@H](CN(C)C)c2ccccc2)C3(C)C)c2sccc2n1 [PF-03758309]

More lines, now with the values behind:

SMILES | Kd [1] | Kd [2] | Kd [3] | Kd (Ephrin type-A receptor 2) | Kd [4] | Kd [5] | Kd (Ephrin type-A receptor 1) | Kd [6] | Kd [7] | Kd [8] | Kd [9] | Kd [10]
CCS(=O)(=O)N1CCN(c2ccc(Nc3ncc(C(N)=O)c(NC4CC4)n3)cc2)CC1 [Cerdulatinib Hydrochloride] | > 30 µM (inactive) | > 30 µM (inactive) | > 30 µM (inactive) | > 30 µM (inactive) | > 30 µM (inactive) | > 30 µM (inactive) | > 30 µM (inactive) | 1.1 µM (active) | > 30 µM (inactive) | > 30 µM (inactive) | > 30 µM (inactive) | > 30 µM (inactive)
Cc1nc2cc(-n3ncc(C(=O)c4cc5ccccc5[nH]4)c3N)ccc2[nH]1 [FGFR INHIBITOR DEBIO 1347] | > 30 µM (inactive) | > 30 µM (inactive) | > 30 µM (inactive) | > 30 µM (inactive) | > 30 µM (inactive) | > 30 µM (inactive) | > 30 µM (inactive) | > 30 µM (inactive) | > 30 µM (inactive) | > 30 µM (inactive) | > 30 µM (inactive) | > 30 µM (inactive)
O=C(Nc1nc2cccc(-c3ccc(CN4CCS(=O)(=O)CC4)cc3)n2n1)C1CC1 [FILGOTINIB] | > 30 µM (inactive) | > 30 µM (inactive) | > 30 µM (inactive) | > 30 µM (inactive) | > 30 µM (inactive) | > 30 µM (inactive) | > 30 µM (inactive) | > 30 µM (inactive) | > 30 µM (inactive) | > 30 µM (inactive) | > 30 µM (inactive) | > 30 µM (inactive)
FC(F)(F)c1ccc(/C=C/c2nc(COc3ccc(CCCCn4ccnn4)cc3)co2)cc1 [MUBRITINIB] | > 30 µM (inactive) | > 30 µM (inactive) | > 30 µM (inactive) | > 30 µM (inactive) | > 30 µM (inactive) | > 30 µM (inactive) | > 30 µM (inactive) | > 30 µM (inactive) | > 30 µM (inactive) | > 30 µM (inactive) | > 30 µM (inactive) | > 30 µM (inactive)
CCCCCCCCCCCCCCCCCCOP(=O)([O-])OC1CC[N+](C)(C)CC1 [PERIFOSINE] | > 30 µM (inactive) | > 30 µM (inactive) | > 30 µM (inactive) | > 30 µM (inactive) | > 30 µM (inactive) | > 30 µM (inactive) | > 30 µM (inactive) | > 30 µM (inactive) | > 30 µM (inactive) | > 30 µM (inactive) | > 30 µM (inactive) | > 30 µM (inactive)
Cc1cnc(NC(=O)Nc2cc(Br)c(C)cc2OC[C@@H]2CNCCO2)cn1 [RABUSERTIB] | > 30 µM (inactive) | > 30 µM (inactive) | > 30 µM (inactive) | > 30 µM (inactive) | > 30 µM (inactive) | > 30 µM (inactive) | > 30 µM (inactive) | > 30 µM (inactive) | > 30 µM (inactive) | > 30 µM (inactive) | > 30 µM (inactive) | > 30 µM (inactive)
CO[C@H]1C[C@@H]2CC[C@@H](C)[C@@](O)(O2)C(=O)C(=O)N2CCCC[C@H]2C(=O)O[C@H]([C@H](C)C[C@@H]2CC[C@@H](OP(C)(C)=O)[C@H](OC)C2)CC(=O)[C@H](C)/C=C(\C)[C@@H](O)[C@@H](OC)C(=O)[C@H](C)C[C@H](C)/C=C/C=C/C=C/1C [RIDAFOROLIMUS] | > 30 µM (inactive) | > 30 µM (inactive) | > 30 µM (inactive) | > 30 µM (inactive) | > 30 µM (inactive) | > 30 µM (inactive) | > 30 µM (inactive) | > 30 µM (inactive) | > 30 µM (inactive) | > 30 µM (inactive) | > 30 µM (inactive) | > 30 µM (inactive)
N#CC1(c2ccc(NC(=O)c3cccnc3NCc3ccncc3)cc2)CCCC1 [RIVOCERANIB] | > 30 µM (inactive) | > 30 µM (inactive) | > 30 µM (inactive) | > 30 µM (inactive) | > 30 µM (inactive) | > 30 µM (inactive) | > 30 µM (inactive) | > 30 µM (inactive) | > 30 µM (inactive) | > 30 µM (inactive) | 4.76 µM (active) | > 30 µM (inactive)
